The values below come from the RepoRT retention time repository (doi:10.1038/s41586-021-03707-9).

Each structure is given as a SMILES string.

The nature of this data set: Waters ACQUITY UPLC BEH C18, 100 × 2.1 mm, 1.7 µm, 40 °C, 0.28 mL/min, estimated dead time 0.63 min; A: water + 6.5 mM ammonium hydroxide; B: methanol + 6.5 mM ammonium hydroxide; gradient (min/%B) 0/0.5 4/70 4.5/98 5.4/98. The following applies: stereoisomer not certain.

Take `O=c1[nH]cc(CO)c(=O)[nH]1`: the LC retention time was 0.855 min.

Turning to `OCCNCCO`, the LC retention time is 0.945 min.

With `NCC1CCC(C(=O)O)CC1` (configuration not stated), the LC retention time is 0.843 min.

On to `C[N+](C)(C)CCCCC(N)C(=O)[O-]` (configuration not stated), for which the LC retention time was 0.837 min.

With `Nc1nc2c(ncn2C2CC(O)C(COP(=O)(O)O)O2)c(=O)[nH]1` (configuration not stated), the LC retention time was 0.923 min.

As for `CCCCCCC(=O)O`, the LC retention time was 4.06 min.

Consider `O=CCc1c[nH]c2ccccc12`, for which the LC retention time was 4.4 min.

As to `CC([NH3+])C(=O)NCC(=O)[O-]` (configuration not stated), the LC retention time is 2.68 min.

Regarding `CCC(C(=O)O)c1ccccc1` (configuration not stated), the LC retention time is 3.74 min.

Regarding `CCC(CO)C(=O)O` (configuration not stated), the LC retention time is 0.857 min.

Take `CCCCC(=O)N(Cc1ccc(-c2ccccc2-c2nn[nH]n2)cc1)C(C(=O)O)C(C)C` (configuration not stated): the LC retention time is 4.48 min.

Take `O=C(CCc1ccc(O)cc1)c1c(O)cc(O)cc1OC1OC(CO)C(O)C(O)C1O` (configuration not stated): the LC retention time was 3.5 min.

For the compound `NC(CO)C(=O)O` (configuration not stated), the LC retention time was 0.761 min.

For the compound `O=C(O)C(O)c1cccc(O)c1` (configuration not stated), the LC retention time is 0.848 min.

Turning to `C[N+](C)(C)CC(=O)[O-]`, the LC retention time was 0.809 min.

For `CC(=O)CCC(=O)O`, the LC retention time is 0.87 min.

With `O=C(O)c1c(O)cccc1O`, the LC retention time was 2.9 min.

On to `CCCC(=O)Nc1ccc(OCC(O)CNC(C)C)c(C(C)=O)c1` (configuration not stated), for which the LC retention time was 4.82 min.

Turning to `O=C(O)CNC(=O)c1ccccc1O`, the LC retention time is 2.48 min.

Take `COc1cc(C=O)ccc1O`: the LC retention time was 2.51 min.

For the compound `NC(Cc1ccccc1)C(=O)O` (configuration not stated), the LC retention time was 2.37 min.

On to `CC(C)C(N)C(=O)O` (configuration not stated), for which the LC retention time is 1 min.

For the compound `Cc1cccc(O)c1O`, the LC retention time was 4 min.

With `O=C(O)CCc1ccc(O)cc1`, the LC retention time was 2.5 min.

For `CCC(C)C(O)C(=O)O` (configuration not stated), the LC retention time was 1.97 min.

Turning to `Cc1ccccc1C(=O)O`, the LC retention time is 2.21 min.

Take `CC(C)=CC(=O)SCCNC(=O)CCNC(=O)C(O)C(C)(C)COP(=O)(O)OP(=O)(O)OCC1OC(n2cnc3c(N)ncnc32)C(O)C1OP(=O)(O)O` (configuration not stated): the LC retention time is 2.95 min.

Consider `CC(=O)NC(CS)C(=O)O` (configuration not stated), for which the LC retention time is 1.15 min.

Take `O=C(O)CCCCC1CCSS1` (configuration not stated): the LC retention time is 3.95 min.

Regarding `CSCCC(O)C(=O)O` (configuration not stated), the LC retention time was 1.5 min.

Take `CC(C)CC(=O)C(=O)O`: the LC retention time was 2.48 min.

`OCC1OC(OCC2OC(O)(CO)C(O)C2O)C(O)C(O)C1O` (configuration not stated): the LC retention time is 0.892 min.

Regarding `NC(=O)C1=CN(C2OC(COP(=O)(O)OP(=O)(O)OCC3OC(n4cnc5c(N)ncnc54)C(O)C3O)C(O)C2O)C=CC1` (configuration not stated), the LC retention time was 0.901 min.

Consider `COc1cc(CC(=O)O)ccc1OS(=O)(=O)O`, for which the LC retention time is 0.848 min.

For `O=C(O)CCCCCCCCCCCO`, the LC retention time was 4.86 min.

Consider `OCC1OC(Oc2ccc(O)cc2)C(O)C(O)C1O` (configuration not stated), for which the LC retention time was 1.81 min.

Take `O=C(O)Cc1ccccc1O`: the LC retention time is 2.46 min.

As to `O=C(O)C(=O)c1ccccc1`, the LC retention time is 2.26 min.

Take `OCC1OC(OCC2OC(OCC3OC(OC4(CO)OC(CO)C(O)C4O)C(O)C(O)C3O)C(O)C(O)C2O)C(O)C(O)C1O` (configuration not stated): the LC retention time is 0.928 min.

Regarding `O=Cc1cccc(O)c1`, the LC retention time is 3.55 min.

Turning to `Oc1cccc2cccnc12`, the LC retention time is 4.19 min.

For the compound `CCCC(CCC)C(=O)O`, the LC retention time is 4.23 min.

Turning to `CC(=O)Oc1cccc(O)c1`, the LC retention time was 3.06 min.

In the case of `CCCCC(CC)CCC(=O)O` (configuration not stated), the LC retention time was 5.33 min.

For `Nc1ncnc2c1ncn2C1OC(COP(=O)(O)O)C(O)C1O` (configuration not stated), the LC retention time is 0.858 min.

In the case of `CC(=O)S`, the LC retention time was 2.35 min.

With `O=C(C=Cc1ccc(O)c(O)c1)OC(Cc1ccc(O)c(O)c1)C(=O)O` (configuration not stated), the LC retention time is 3.14 min.
